# According to patent publication EP0498830B1, “GLUTAMIC AND ASPARTIC ACID DERIVATIVES WITH ANTIGASTRIN ACTIVITY AND A METHOD FOR THEIR PREPARATION” (ROTTA RESEARCH LABORATORIUM S.P.A., priority 1989, dated 1991):
# pIC50: −log10 of the molar value. Read-outs that look alike come from different tables or passages of the source.
# Experiments:
# [1] = tested on: gastric acid secretion induced by pentagastrin; experiment: Antisecretive activity in anaesthetised rats, stimulant pentagastrin; assay type: in vivo; settings: Rattus norvegicus, iv; pentagastrin 30 mcg/kg/h; I.V. bolus; anaesthetised rats; read-out: Antagonistic activity (ED50 mg/kg IV) towards gastric acid secretion induced by pentagastrin
# Protocol: The antisecretive activity was determined in rats with the use of male animals weighing about 200g, anaesthetised with urethane. Gastric secretion was stimulated with pentagastrin. K.S. Lai's method (Gut 5, (1964), 327-341) was used, with slight modifications.
# After tracheotomy, oesophageal and duodenal cannulae were inserted. A tepid solution (37°C) of 0.25 mM NaOH was perfused through the stomach by means of a peristaltic pump at a constant flow rate of 1 ml/minute. After stabilisation for 20 minutes, the dose of the stimulant, indicated in Table 3, dissolved in a physiological solution, was perfused for 120 minutes at a rate of 0.95 ml/hour. After 60 minutes of perfusion (basic stimulation), the products under test were administered intravenously (I.V.) in boli whilst the perfusion of the stimulant continued for a further 60 minutes. The acid secretion was recorded continuously as a function of time.
# The activity of the product was evaluated as the reduction in the secreted acidity after administration of the product as a percentage of the basic acidity measured during the first 60 minutes of collection during which only pentagastrin was present.
# The antagonistic compounds tested were administered in different doses so that an ID50 (that is the dose (in mg/Kg I.V.) which can inhibit the effect of the pentagastrin by 50% could be calculated.
# The results thus obtained are given in the following table in which the activities of the compounds are expressed as ID50s under the stimulus of pentagastrin at 30 mcg/Kg/h.
# [2] = tested on: guinea-pig gall bladders stimulated in vitro by CCK-8; experiment: Anti-CCK activity on guinea-pig gall bladder contracted in vitro by CCK-8; settings: CCK-8 10 ng/ml; at least three tests per compound
# Protocol: In order to check the hypothesis that the molecular conformation of the subject compounds is suitable to give them a specific antagonistic activity towards gastrin and not towards CCK, the anticontracturant activity of some of the compounds of the invention was tested on guinea-pig gall bladders stimulated in vitro by CCK-8.
# A longitudinal strip of guinea-pig gall bladder was placed in a bath for isolated organs in the presence of Krebs at a temperature of 32°C, continuously oxygenated by an oxygen-CO₂ mixture (95-5 V/V).
# The isometric contractions were detected by means of a force transducer and recorded.
# The gall bladder was contracted with the use of a 10ng/ml concentration of CCK-8; the antagonistic activity of the compounds towards the contracturant effect of the CCK was determined with the use of different concentrations and the IC50 value, that is, the concentration in mcg/ml of the compound which is able to antagonise the contracturant effect of the CCK by 50%, thus determined.
# The results obtained are set out in the table below which gives the compounds tested and the IC50s which were calculated by the regression method on a set of at least three tests for each compound investigated.
# [3] = target: T1, gastrin receptor sites on the parietal cell membranes of the fundic mucosa of a guinea-pig stomach (Cavia porcellus, UniProt H0VZC5); experiment: Inhibition of binding of tritiated pentagastrin to isolated guinea-pig gastric glands; set-up: from tissue; host or cells: isolated gastric glands from guinea-pig fundic mucosa (collagenase digestion)
# T1 sequence (H0VZC5 1-426): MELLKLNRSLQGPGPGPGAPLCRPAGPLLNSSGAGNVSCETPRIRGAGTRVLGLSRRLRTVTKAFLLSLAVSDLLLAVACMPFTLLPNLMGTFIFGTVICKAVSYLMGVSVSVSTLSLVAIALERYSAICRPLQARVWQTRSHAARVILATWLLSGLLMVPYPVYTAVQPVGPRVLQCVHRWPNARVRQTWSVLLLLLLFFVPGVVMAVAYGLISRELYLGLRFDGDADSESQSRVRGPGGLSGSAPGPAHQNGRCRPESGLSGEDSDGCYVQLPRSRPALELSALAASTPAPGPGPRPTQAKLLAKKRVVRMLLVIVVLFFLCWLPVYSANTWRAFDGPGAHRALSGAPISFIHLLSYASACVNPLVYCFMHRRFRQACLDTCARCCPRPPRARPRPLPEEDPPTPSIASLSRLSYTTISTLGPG
# Protocol: The capacity of some of the compounds which are the subject of the invention to inhibit the binding of pentagastrin-[beta-alanyl-3-3H(N)] to the gastrin receptor sites on the parietal cell membranes of the fundic mucosa of a guinea-pig stomach was evaluated by comparison with the displacement of pentagastrin induced by proglumide, which is a reference antigastrin compound, by lorglumide, which is a powerful CCK antagonist mentioned above, and by the compound D5 which is the optical antipode (the L-series enantiomer) of the compound D1.
# Male guinea pigs weighing about 400-500g were used. After the guinea pig had been killed, its stomach was removed and placed in oxygenated SPB buffer at 37°C (SPB = saline phosphate buffer: 149.6 mM NaCl, 3 mM K₂HPO₄, 0.64 mM NaH₂PO₄, pH 7.3).
# After washing in the buffer, the stomach was placed on a petri dish and the antral part discarded.
# The mucosa of the remaining part was removed from the underlying muscular part and was then chopped and transferred to a flask containing a collagenase digestion solution, 0.1% BSA and 0.2% glucose. The solution was incubated at 37°C for 10 minutes under agitation and a stream of 0₂.
# During the incubation period, the tissue was passed several times through a series of pipettes with decreasing diameters in order to facilitate its digestion. At the end of the period, the tissue was removed and centrifuged at 1000 rpm. The supernatant liquid resulting from the centrifuging was discarded and the pellet washed several times with a washing buffer containing EPTA to remove the collagenase.
# The glands were then isolated from the undigested tissue by conventional techniques, suspended in Hepes buffer for binding and incubated together with a radioactive tracer and the compounds under test for 30 minutes at 25°C.
# After the supernatant liquid had been removed by centrifuging, the radioactivity associated with the pellet was determined with a liquid scintillator. The specific binding was determined as the difference between the binding in the absence and in the presence of 10⁻⁶ M pentagastrin.
# The results obtained are shown in Table 1 which gives the IC50, that is, the concentration (in moles/litre) of the antagonist which can displace 50% of the pentagastrin tritiate from the receptor.
# [4] = target: T2, central gastrin receptors (Mus musculus, UniProt P56481); experiment: Inhibition of binding of tritiated pentagastrin to mouse cerebral cortex membranes; set-up: Mouse cortex tissue was homogenised cold in 20 volumes of tris buffer (pH 7.7); from tissue; host or cells: mouse cerebral cortex membranes; species or system mice; settings: displacement of pentagastrin tritiate; 40 minutes at 37°C
# T2 sequence (P56481 1-453): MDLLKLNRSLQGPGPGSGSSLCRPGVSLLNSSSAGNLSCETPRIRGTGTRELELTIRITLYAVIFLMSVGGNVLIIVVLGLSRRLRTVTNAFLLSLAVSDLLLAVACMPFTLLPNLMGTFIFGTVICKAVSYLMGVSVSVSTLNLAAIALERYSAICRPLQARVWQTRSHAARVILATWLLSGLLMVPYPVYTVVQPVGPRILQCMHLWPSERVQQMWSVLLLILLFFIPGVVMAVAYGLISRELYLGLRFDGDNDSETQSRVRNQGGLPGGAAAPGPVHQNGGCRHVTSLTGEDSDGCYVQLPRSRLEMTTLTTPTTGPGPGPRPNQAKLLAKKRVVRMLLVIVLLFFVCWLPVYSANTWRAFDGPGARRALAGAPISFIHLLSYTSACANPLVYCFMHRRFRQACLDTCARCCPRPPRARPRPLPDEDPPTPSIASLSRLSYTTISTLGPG
# Protocol: Cerebral cortex membranes were therefore used and pentagastrin tritiate was again used as the ligand.
# Mouse cortex tissue was homogenised cold in 20 volumes of tris buffer (pH 7.7). After washing and centrifuging, the final pellet was resuspended in 20 volumes of binding buffer containing, inter alia, TRIS, BSA and bacitracin. 0.4 ml of the membrane thus obtained were then incubated with a radioactive tracer and with the compounds under test for 40 minutes at 37°C.
# After the supernatant liquid had been removed by centrifuging, the radioactivity associated with the pellet was determined, again with a liquid scintillator. The specific binding is the difference between the binding in the absence and in the presence of 10⁻⁶M pentagastrin.
# Again, this gives the IC50s of the compounds tested with the meaning as given above.
# [5] = displacement of 50% of pentagastrin tritiate, 30 minutes at 25°C, read-out: IC50
SMILES,ED50 [1] [mg/kg],IC50 ACTIVITY [2] [µg/mL],"pIC50 [3, 5]",pIC50 [4],pIC50 [3],"times less active than the corresponding compound D1 ([3]; L-series vs D-series enantiomer, gastric glands)"
CCCCCNC(=O)C(CCC(=O)O)NC(=O)c1cccc(Cl)c1 (racemic) [A1],56,> 100,5.70,5.17,,
"CCCN(CCC)C(=O)C(CCC(=O)O)NC(=O)c1ccccc1 (stereo not shown) [Proglumide, reference compound]",500,,,3.66,,
CC(C)(C)CCNC(=O)C(CCC(=O)O)NC(=O)c1cc(Cl)cc(Cl)c1 (racemic) [A21],34,,,7.10,7.16,
CC(C)CCCNC(=O)C(CCC(=O)O)NC(=O)c1cccc(Cl)c1 (racemic) [A4],61,,5.48,,,
CCC(CC)(CC)CCNC(=O)C(CCC(=O)O)NC(=O)c1cccc(Cl)c1 (racemic) [A14],39,,7.11,7.03,,
CCC(C)(C)CCNC(=O)C(CCC(=O)O)NC(=O)c1cccc(C)c1 (racemic) [A20],44,> 100,6.17,6.08,,
CC(C)(C)CCCNC(=O)C(CCC(=O)O)NC(=O)c1cccc(Cl)c1 (racemic) [A9],34,,6.70,6.66,,
"CC(C)(C)CCNC(=O)[C@H](CCC(=O)O)NC(=O)c1cccc(Cl)c1 [D5, reference compound]",89,,6.28,6.18,,about 10 times
CCC(C)(CC)CCNC(=O)[C@@H](CCC(=O)O)NC(=O)c1cccc(Cl)c1 [D3],30,,7.24,,,
CCC(C)(CCNC(=O)C(CCC(=O)O)NC(=O)c1cccc(Cl)c1)C(C)C (stereo not shown) [A16],37,,6.54,,,
CCCCCNC(=O)C(CCC(=O)O)NC(=O)c1cccc(C)c1 (racemic) [A17],65,,5.35,4.77,,
CCC(C)(CC)CCNC(=O)C(CC(=O)O)NC(=O)c1cccc(C)c1 (racemic) [A26],52,,6.08,,,
CCC(CC)CCNC(=O)C(CCC(=O)O)NC(=O)c1cccc(Cl)c1 (racemic) [A11],53,,6.19,,,
CC(C)CCNC(=O)C(CCC(=O)O)NC(=O)c1cccc(Cl)c1 (racemic) [A2],48,,5.51,,,
CCC(C)(CC)CCNC(=O)C(CCC(=O)O)NC(=O)c1cc(Cl)ccc1[N+](=O)[O-] (racemic) [A23],40,,7.18,6.64,,
O=C(O)CCC(NC(=O)c1cccc(Cl)c1)C(=O)NC1CCCCCC1 (racemic) [A12],58,,5.42,5.19,,
"O=C(O)CC[C@H](NC(=O)c1cccc(Cl)c1)C(=O)NC1CCCCCC1 [D6, reference compound]",,,4.17,,,
CCC(C)CCNC(=O)C(CCC(=O)O)NC(=O)c1cccc(Cl)c1 (stereo not shown) [A6],55,,5.35,,,
CCC(C)(CC)CCNC(=O)C(CCC(=O)O)NC(=O)c1cc(C)cc(C)c1 (racemic) [A22],41,,5.54,5.62,,
CC(C)(C)CCCNC(=O)[C@@H](CCC(=O)O)NC(=O)c1cccc(Cl)c1 [D2],34,,7.47,7.23,,
O=C(O)CCC(NC(=O)c1cccc(Cl)c1)C(=O)NC1CCCCC1 (racemic) [A7],93,> 100,4.77,,,
O=C(O)CC(NC(=O)c1cccc(Cl)c1)C(=O)NC1CCCCCC1 (racemic) [A25],74,,5.14,,,
CCCCCCNC(=O)C(CCC(=O)O)NC(=O)c1cccc(C)c1 (racemic) [A18],58,,5.24,,,
CCC(C)(CC)CCNC(=O)C(CC(=O)O)NC(=O)c1cccc(Cl)c1 (racemic) [A24],42,,6.64,6.54,,
CCCCCCNC(=O)C(CCC(=O)O)NC(=O)c1cccc(Cl)c1 (racemic) [A3],54,,5.32,5.12,,
O=C(O)CC[C@@H](NC(=O)c1cccc(Cl)c1)C(=O)NC1CCCCCC1 [D4],64,,5.64,,,
CCC(C)(C)CCNC(=O)C(CCC(=O)O)NC(=O)c1cccc(Cl)c1 (racemic) [A10],37,,6.64,6.74,,
Cc1cccc(C(=O)NC(CCC(=O)O)C(=O)NC2CCCCC2)c1 (racemic) [A19],98,,4.39,,,
CCCCCCCNC(=O)C(CCC(=O)O)NC(=O)c1cccc(Cl)c1 (racemic) [A8],> 100,,4.92,4.41,,
